Laboratory results as given in US9549932B2, “2-(morpholin-4-yl)-1,7-naphthyridines” (BAYER PHARMA AKTIENGESELLSCHAFT, priority 2014, dated 2017).

What follows are molecules tested against full-length human ATR protein (Homo sapiens (Human), UniProt Q13535) (assay: Binding assay ATR (TR-FRET tracer displacement)). Details: tracer A, TR-FRET; read-out: ATR binding (tracer A) IC50.
Chain of full-length human ATR protein (Q13535 other isoform, or with tags, fused parts or gaps): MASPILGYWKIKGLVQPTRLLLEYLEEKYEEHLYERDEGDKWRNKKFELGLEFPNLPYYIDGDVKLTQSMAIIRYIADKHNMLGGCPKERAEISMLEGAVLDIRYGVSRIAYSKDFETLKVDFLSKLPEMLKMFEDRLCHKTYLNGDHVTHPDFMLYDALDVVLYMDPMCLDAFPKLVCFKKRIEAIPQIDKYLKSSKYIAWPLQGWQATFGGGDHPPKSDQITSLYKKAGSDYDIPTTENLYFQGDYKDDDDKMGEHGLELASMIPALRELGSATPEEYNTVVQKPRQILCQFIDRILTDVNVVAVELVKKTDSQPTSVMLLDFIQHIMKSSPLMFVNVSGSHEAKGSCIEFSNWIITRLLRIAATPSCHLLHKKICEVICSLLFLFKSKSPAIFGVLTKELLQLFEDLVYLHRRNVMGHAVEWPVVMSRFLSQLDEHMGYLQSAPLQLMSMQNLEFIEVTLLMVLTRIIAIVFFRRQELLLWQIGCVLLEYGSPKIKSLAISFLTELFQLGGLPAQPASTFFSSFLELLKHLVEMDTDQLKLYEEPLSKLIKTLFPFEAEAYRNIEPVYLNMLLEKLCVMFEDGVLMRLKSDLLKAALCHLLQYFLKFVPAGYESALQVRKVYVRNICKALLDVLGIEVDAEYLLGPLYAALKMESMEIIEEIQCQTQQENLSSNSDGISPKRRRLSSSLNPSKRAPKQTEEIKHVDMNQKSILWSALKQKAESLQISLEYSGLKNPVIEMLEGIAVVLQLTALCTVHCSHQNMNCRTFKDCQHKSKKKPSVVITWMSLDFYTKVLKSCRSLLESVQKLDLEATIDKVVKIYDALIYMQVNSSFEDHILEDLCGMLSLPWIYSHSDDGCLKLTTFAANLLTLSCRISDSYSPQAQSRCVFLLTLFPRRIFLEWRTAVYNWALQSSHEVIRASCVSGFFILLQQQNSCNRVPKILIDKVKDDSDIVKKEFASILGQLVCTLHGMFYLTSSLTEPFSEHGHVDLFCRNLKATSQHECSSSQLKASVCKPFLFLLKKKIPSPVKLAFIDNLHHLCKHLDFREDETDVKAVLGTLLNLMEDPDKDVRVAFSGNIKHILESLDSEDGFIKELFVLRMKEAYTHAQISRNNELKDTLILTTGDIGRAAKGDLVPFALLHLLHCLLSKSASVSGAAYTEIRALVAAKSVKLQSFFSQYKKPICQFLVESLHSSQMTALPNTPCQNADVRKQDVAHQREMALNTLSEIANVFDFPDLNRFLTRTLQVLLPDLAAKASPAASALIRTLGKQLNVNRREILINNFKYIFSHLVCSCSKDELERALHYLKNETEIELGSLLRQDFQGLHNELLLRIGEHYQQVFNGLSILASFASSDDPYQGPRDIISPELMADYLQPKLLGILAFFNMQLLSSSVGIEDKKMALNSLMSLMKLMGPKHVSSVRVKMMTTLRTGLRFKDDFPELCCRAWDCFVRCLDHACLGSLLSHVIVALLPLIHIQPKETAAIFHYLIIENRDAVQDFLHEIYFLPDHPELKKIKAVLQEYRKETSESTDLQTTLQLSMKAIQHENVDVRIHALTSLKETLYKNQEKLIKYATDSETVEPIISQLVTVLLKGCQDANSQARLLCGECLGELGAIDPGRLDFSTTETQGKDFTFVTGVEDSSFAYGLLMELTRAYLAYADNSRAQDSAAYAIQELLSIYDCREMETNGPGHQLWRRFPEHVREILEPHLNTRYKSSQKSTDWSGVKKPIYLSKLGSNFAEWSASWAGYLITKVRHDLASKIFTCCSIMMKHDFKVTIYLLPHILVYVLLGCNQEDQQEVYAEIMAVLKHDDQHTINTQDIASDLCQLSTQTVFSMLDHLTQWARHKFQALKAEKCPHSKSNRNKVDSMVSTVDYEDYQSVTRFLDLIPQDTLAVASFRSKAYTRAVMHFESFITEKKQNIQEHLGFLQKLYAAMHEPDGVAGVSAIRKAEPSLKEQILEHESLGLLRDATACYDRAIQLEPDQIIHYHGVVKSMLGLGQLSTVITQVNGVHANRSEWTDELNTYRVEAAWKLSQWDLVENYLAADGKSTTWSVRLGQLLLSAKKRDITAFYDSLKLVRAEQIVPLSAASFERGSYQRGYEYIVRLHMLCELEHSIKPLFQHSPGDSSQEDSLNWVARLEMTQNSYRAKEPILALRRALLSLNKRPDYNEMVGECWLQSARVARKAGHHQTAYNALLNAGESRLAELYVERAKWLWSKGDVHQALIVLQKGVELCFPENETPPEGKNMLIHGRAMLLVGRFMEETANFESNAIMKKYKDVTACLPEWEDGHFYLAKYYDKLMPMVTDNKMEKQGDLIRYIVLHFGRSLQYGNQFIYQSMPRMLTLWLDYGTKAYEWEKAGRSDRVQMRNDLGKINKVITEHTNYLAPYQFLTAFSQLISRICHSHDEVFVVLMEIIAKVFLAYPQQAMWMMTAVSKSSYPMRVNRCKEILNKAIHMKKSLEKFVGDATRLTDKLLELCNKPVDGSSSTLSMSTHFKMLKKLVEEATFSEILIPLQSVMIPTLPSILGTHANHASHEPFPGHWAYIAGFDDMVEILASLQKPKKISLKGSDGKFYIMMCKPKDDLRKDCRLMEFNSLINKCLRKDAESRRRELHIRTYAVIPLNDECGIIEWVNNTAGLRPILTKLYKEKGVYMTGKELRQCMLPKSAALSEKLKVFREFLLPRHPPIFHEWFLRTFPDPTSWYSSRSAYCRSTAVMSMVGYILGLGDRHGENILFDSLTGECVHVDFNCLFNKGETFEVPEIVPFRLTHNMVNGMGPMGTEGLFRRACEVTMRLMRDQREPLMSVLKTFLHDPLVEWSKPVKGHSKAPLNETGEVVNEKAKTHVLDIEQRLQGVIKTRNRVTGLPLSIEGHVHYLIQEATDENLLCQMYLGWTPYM
Chain of full-length human ATR protein (Q8WXE1 other isoform, or with tags, fused parts or gaps partner): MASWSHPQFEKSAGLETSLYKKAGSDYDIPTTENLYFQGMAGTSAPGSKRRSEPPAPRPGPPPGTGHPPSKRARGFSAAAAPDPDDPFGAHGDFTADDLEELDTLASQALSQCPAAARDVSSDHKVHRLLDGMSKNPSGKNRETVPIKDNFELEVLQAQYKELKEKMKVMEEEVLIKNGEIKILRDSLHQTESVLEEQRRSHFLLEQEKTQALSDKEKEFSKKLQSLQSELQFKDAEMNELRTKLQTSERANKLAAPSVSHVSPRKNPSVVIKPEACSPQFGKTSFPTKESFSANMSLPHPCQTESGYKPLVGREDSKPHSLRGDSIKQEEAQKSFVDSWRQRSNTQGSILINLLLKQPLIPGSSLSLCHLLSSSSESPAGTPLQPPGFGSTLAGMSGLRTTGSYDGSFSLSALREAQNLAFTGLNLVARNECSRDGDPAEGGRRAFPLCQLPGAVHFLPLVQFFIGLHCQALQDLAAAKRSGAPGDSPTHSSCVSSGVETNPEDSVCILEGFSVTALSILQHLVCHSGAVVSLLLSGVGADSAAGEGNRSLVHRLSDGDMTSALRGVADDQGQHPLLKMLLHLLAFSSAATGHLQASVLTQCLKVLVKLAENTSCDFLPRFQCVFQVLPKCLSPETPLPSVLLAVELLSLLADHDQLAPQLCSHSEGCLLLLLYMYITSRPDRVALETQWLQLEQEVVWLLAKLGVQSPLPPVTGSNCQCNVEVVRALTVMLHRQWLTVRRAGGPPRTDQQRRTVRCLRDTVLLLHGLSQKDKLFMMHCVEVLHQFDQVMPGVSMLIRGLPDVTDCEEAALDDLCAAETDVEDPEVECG
Procedure, shortened: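 Full-length human GST-ATR co-purified with ATRIP, pre-complexed 30 min at 22 °C with anti-GST-Tb antibody, then pre-bound with compound 10 min. Tracer A or B added (2 µl of 100 nM solution), 30 min at 22 °C.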
`C[C@@H]1COCCN1c1cc(N2CCNCC2)c2ccnc(-c3ccn[nH]3)c2n1` [Example 66, 2-[(3R)-3-methylmorpholin-4-yl]-4-(piperazin-1-yl)-8-(1H-pyrazol-5-yl)-1,7-naphthyridine] gave an IC50 of 87.2 nM.
`C[C@@H]1COCCN1c1cc(N2CCn3ccnc3C2)c2ccnc(-c3ccn[nH]3)c2n1` [Example 86, 4-(5,6-dihydroimidazo[1,2-a]pyrazin-7(8H)-yl)-2-[(3R)-3-methylmorpholin-4-yl]-8-(1H-pyrazol-5-yl)-1,7-naphthyridine] was tested, and the IC50 was 10.9 nM.
`C[C@@H]1COCCN1c1cc(-c2cncn2C)c2ccnc(-c3ccn[nH]3)c2n1` [Example 70, 4-(1-methyl-1H-imidazol-5-yl)-2-[(3R)-3-methylmorpholin-4-yl]-8-(1H-pyrazol-5-yl)-1,7-naphthyridine] was tested, and the IC50 was 5.17 nM.
`CNC(=O)c1ccc(-c2cc(N3CCOCC3)nc3c(-c4ccn[nH]4)nccc23)cn1` [Example 398, N-methyl-5-[2-(morpholin-4-yl)-8-(1H-pyrazol-5-yl)-1,7-naphthyridin-4-yl]pyridine-2-carboxamide] gave an IC50 of 120 nM.
Work on `Clc1ccc(-c2cc(N3CCOCC3)nc3c(-c4ccn[nH]4)nccc23)cc1` [Example 316, 4-(4-chlorophenyl)-2-(morpholin-4-yl)-8-(1H-pyrazol-5-yl)-1,7-naphthyridine] yielded an IC50 of 53.2 nM.
`CS(=N)(=O)c1ccc(-c2cc(N3CCOCC3)nc3c(-c4ccn[nH]4)nccc23)cc1` (stereo not shown) [Example 2] showed an IC50 of 95.2 nM.
For `Cc1cc(-c2cc(N3CCOC[C@H]3C)nc3c(-c4ccn[nH]4)nccc23)c(C)s1` [Example 240, 4-(2,5-dimethylthiophen-3-yl)-2-[(3R)-3-methylmorpholin-4-yl]-8-(1H-pyrazol-5-yl)-1,7-naphthyridine], the IC50 was 30 nM.
`C[C@@H]1COCCN1c1cc(N(C)C2CC2)c2ccnc(-c3ccn[nH]3)c2n1` [Example 85, N-cyclopropyl-N-methyl-2-[(3R)-3-methylmorpholin-4-yl]-8-(1H-pyrazol-5-yl)-1,7-naphthyridin-4-amine] was tested, and the IC50 was 11.9 nM.
`C[C@@H]1COCCN1c1cc(-c2ncco2)c2ccnc(-c3ccn[nH]3)c2n1` [Example 270, 2-[(3R)-3-methylmorpholin-4-yl]-4-(1,3-oxazol-2-yl)-8-(1H-pyrazol-5-yl)-1,7-naphthyridine] was tested, and the IC50 was 33.7 nM.
In the case of `Cc1ccsc1-c1cc(N2CCOCC2)nc2c(-c3ccn[nH]3)nccc12` [Example 373, 4-(3-methylthiophen-2-yl)-2-(morpholin-4-yl)-8-(1H-pyrazol-5-yl)-1,7-naphthyridine], the IC50 is reported as 38.1 nM.
`O=C1CCCCN1c1cc(N2CCOCC2)nc2c(-c3ccn[nH]3)nccc12` [Example 217, 1-[2-(morpholin-4-yl)-8-(1H-pyrazol-5-yl)-1,7-naphthyridin-4-yl]piperidin-2-one] gave an IC50 of 802 nM.
In the case of `CC(C)Oc1cc(N2CCOC[C@H]2C)nc2c(-c3cc[nH]n3)nccc12` [Example 51, 4-isopropoxy-2-((R)-3-methylmorpholin-4-yl)-8-(1H-pyrazol-3-yl)-[1,7]naphthyridine], the IC50 is reported as 38 nM.
`Cc1ccc(-c2cc(N3CCOCC3)nc3c(-c4ccn[nH]4)nccc23)cn1` [Example 388, 4-(6-methylpyridin-3-yl)-2-(morpholin-4-yl)-8-(1H-pyrazol-5-yl)-1,7-naphthyridine] showed an IC50 of 79.1 nM.
With `CC(C)(O)COc1cc(N2CCOCC2)nc2c(-c3ccn[nH]3)nccc12` [Example 45, 2-methyl-1-{[2-(morpholin-4-yl)-8-(1H-pyrazol-5-yl)-1,7-naphthyridin-4-yl]oxy}propan-2-ol] the IC50 was 293 nM.
`CC(C)[S+]([O-])c1cc(N2CCOCC2)nc2c(-c3ccn[nH]3)nccc12` (stereo not shown) [Example 196, 2-(morpholin-4-yl)-4-[propan-2-ylsulfinyl]-8-(1H-pyrazol-5-yl)-1,7-naphthyridine] was tested, and the IC50 was 72.6 nM.
Molecule `Cn1cccc1-c1cc(N2CCOCC2)nc2c(-c3ccn[nH]3)nccc12` [Example 389, 4-(1-methyl-1H-pyrrol-2-yl)-2-(morpholin-4-yl)-8-(1H-pyrazol-5-yl)-1,7-naphthyridine] has an IC50 of 26.6 nM.
`Cc1cc(-c2cc(N3CCOC[C@H]3C)nc3c(-c4ccn[nH]4)nccc23)on1` [Example 112, 2-[(3R)-3-methylmorpholin-4-yl]-4-(3-methyl-1,2-oxazol-5-yl)-8-(1H-pyrazol-5-yl)-1,7-naphthyridine] was tested, and the IC50 was 4.74 nM.
With `COc1ncccc1-c1cc(N2CCOCC2)nc2c(-c3ccn[nH]3)nccc12` [Example 362, 4-(2-methoxypyridin-3-yl)-2-(morpholin-4-yl)-8-(1H-pyrazol-5-yl)-1,7-naphthyridine] the IC50 was 295 nM.
`C[C@@H]1COCCN1c1cc(S(C)(=O)=O)c2ccnc(-c3ccn[nH]3)c2n1` [Example 33, 2-[(3R)-3-methylmorpholin-4-yl]-4-(methylsulfonyl)-8-(1H-pyrazol-5-yl)-1,7-naphthyridine] showed an IC50 of 19.8 nM.
Work on `Cc1ncc(-c2cc(N3CCOC[C@H]3C)nc3c(-c4ccn[nH]4)nccc23)cc1F` [Example 233, 4-(5-fluoro-6-methylpyridin-3-yl)-2-[(3R)-3-methylmorpholin-4-yl]-8-(1H-pyrazol-5-yl)-1,7-naphthyridine] yielded an IC50 of 42 nM.
`C[C@@H]1COCCN1c1cc(-c2cncc3ccccc23)c2ccnc(-c3ccn[nH]3)c2n1` [Example 237, 4-(isoquinolin-4-yl)-2-[(3R)-3-methylmorpholin-4-yl]-8-(1H-pyrazol-5-yl)-1,7-naphthyridine] was tested, and the IC50 was 18.2 nM.
`C[C@@H]1COCCN1c1cc(-c2cnn(C3CCC3)c2)c2ccnc(-c3ccn[nH]3)c2n1` [Example 253, 4-(1-cyclobutyl-1H-pyrazol-4-yl)-2-[(3R)-3-methylmorpholin-4-yl]-8-(1H-pyrazol-5-yl)-1,7-naphthyridine] gave an IC50 of 33.7 nM.
In the case of `c1ccc2c(c1)CCCN2c1cc(N2CCOCC2)nc2c(-c3ccn[nH]3)nccc12` [Example 418, 4-(3,4-dihydroquinolin-1(2H)-yl)-2-(morpholin-4-yl)-8-(1H-pyrazol-5-yl)-1,7-naphthyridine], the IC50 is reported as 94.1 nM.
For `CC(C)(O)c1cc(N2CCOCC2)nc2c(-c3ccn[nH]3)nccc12` [Example 173, 2-[2-(morpholin-4-yl)-8-(1H-pyrazol-5-yl)-1,7-naphthyridin-4-yl]propan-2-ol], the IC50 was 205 nM.
For `c1cc(-c2nccc3c(-c4cc[nH]n4)cc(N4CCOCC4)nc23)[nH]n1` [Example 387, 2-(morpholin-4-yl)-4-(1H-pyrazol-3-yl)-8-(1H-pyrazol-5-yl)-1,7-naphthyridine], the IC50 was 218 nM.
`c1cc(-c2nccc3c(-c4cc[nH]c4)cc(N4CCOCC4)nc23)[nH]n1` [Example 212, 2-(morpholin-4-yl)-8-(1H-pyrazol-5-yl)-4-(1H-pyrrol-3-yl)-1,7-naphthyridine] showed an IC50 of over 20000 nM.
Work on `C[C@@H]1COCCN1c1cc(-c2ccn(C3CCOCC3)n2)c2ccnc(-c3ccn[nH]3)c2n1` [Example 246, 2-[(3R)-3-methylmorpholin-4-yl]-8-(1H-pyrazol-5-yl)-4-[1-(tetrahydro-2H-pyran-4-yl)-1H-pyrazol-3-yl]-1,7-naphthyridine] yielded an IC50 of 68 nM.
For `CS(=O)(=O)N1CCN(c2cc(N3CCOCC3)nc3c(-c4ccn[nH]4)nccc23)CC1` [Example 434, 4-[4-(methylsulfonyl)piperazin-1-yl]-2-(morpholin-4-yl)-8-(1H-pyrazol-5-yl)-1,7-naphthyridine], the IC50 was 31.8 nM.

Same assay, conditions: tracer B, TR-FRET; read-out: ATR binding (tracer B) IC50
With `CS(=N)(=O)c1ccc(-c2cc(N3CCOCC3)nc3c(-c4ccn[nH]4)nccc23)cc1` (stereo not shown) [Example 2] the IC50 was 38.3 nM.
Molecule `CC(C)Oc1cc(N2CCOC[C@H]2C)nc2c(-c3cc[nH]n3)nccc12` [Example 51, 4-isopropoxy-2-((R)-3-methylmorpholin-4-yl)-8-(1H-pyrazol-3-yl)-[1,7]naphthyridine] has an IC50 of 23.3 nM.
Molecule `C[C@@H]1COCCN1c1cc(S(C)(=O)=O)c2ccnc(-c3ccn[nH]3)c2n1` [Example 33, 2-[(3R)-3-methylmorpholin-4-yl]-4-(methylsulfonyl)-8-(1H-pyrazol-5-yl)-1,7-naphthyridine] has an IC50 of 10.3 nM.
